# Reference: patent publication US5936065A, “CS-1 peptidomimetics, compositions and methods of using the same” (Cytel Corporation, priority 1995, dated 1999)
# Square brackets hold non-standard residues; d marks the D form. Peptide text beside a SMILES is read from it. * marks the point of attachment. PhAc = O=C(Cc1ccccc1)*
# Experiments:
# VLA-4 receptor = target: T1, VLA-4 receptor (Homo sapiens, UniProt P05556+P13612); test: In vitro binding assay: inhibition of binding of 51Cr-labeled Jurkat cells to solid phase-bound CS-1 compound (SEQ ID NO:1); type: cell-based; details: for Relative Potency: binding inhibition potency (IC50) normalized to standard compound of SEQ ID NO:3 = 1, multiple assays averaged, about one-tenth or less assigned zero
# T1 construct: inflammatory cells that contain the VLA-4 receptor [Jurkat cells; host or cells: Jurkat cells (human T lymphoblastic line)
# T1 sequence (P13612 34-1032): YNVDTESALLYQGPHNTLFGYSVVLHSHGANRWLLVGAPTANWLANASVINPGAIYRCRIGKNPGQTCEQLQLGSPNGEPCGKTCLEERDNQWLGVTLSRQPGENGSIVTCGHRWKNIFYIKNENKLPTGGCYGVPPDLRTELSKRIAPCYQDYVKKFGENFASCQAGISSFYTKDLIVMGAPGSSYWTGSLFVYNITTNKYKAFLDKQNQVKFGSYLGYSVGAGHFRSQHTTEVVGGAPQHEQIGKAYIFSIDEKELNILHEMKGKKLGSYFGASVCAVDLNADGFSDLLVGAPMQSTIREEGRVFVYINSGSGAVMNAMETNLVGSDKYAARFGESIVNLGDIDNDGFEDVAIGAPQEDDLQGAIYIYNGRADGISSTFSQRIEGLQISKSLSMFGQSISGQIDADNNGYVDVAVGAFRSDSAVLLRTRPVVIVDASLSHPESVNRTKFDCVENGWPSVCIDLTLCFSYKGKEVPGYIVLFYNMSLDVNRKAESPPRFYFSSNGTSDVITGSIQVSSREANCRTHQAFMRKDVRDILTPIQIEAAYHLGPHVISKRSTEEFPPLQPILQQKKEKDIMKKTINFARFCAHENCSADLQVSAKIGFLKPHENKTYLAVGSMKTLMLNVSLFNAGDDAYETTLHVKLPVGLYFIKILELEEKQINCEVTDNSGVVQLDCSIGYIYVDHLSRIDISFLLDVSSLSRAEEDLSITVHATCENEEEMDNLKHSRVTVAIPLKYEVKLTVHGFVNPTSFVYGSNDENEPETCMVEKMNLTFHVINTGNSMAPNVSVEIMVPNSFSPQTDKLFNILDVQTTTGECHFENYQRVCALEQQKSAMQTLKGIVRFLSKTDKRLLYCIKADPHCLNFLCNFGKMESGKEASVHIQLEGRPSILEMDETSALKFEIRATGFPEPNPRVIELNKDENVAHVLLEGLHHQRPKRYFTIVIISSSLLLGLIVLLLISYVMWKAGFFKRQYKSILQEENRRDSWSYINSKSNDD
# T1 sequence (P05556 21-798): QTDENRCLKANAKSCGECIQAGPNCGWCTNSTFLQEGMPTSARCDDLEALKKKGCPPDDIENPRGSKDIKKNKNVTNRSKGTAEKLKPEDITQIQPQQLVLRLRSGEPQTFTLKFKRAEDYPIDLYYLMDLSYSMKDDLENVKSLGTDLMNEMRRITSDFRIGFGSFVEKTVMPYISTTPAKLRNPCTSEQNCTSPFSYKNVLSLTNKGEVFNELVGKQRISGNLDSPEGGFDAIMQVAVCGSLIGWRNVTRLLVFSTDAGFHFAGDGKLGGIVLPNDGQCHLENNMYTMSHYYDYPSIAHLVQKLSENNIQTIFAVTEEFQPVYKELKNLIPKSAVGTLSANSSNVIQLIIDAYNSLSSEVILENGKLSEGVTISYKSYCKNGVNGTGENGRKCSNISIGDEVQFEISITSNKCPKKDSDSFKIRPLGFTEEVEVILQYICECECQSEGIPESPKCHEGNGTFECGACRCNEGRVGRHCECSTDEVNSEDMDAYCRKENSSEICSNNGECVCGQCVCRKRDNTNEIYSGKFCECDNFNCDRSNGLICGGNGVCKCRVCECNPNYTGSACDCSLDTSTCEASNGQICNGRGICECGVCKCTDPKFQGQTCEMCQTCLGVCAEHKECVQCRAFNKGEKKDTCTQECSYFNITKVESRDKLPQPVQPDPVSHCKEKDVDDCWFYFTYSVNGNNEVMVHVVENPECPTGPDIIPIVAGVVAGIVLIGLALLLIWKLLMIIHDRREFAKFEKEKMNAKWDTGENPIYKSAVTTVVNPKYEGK
# Description: Binding inhibition is measured here as a concentration of compound that inhibits one-half the binding between a standard number of Jurkat cells and a standard amount of CS-1 compound bound to the surface of a microtiter plate well. Those concentrations are conveniently expressed as IC50 values, smaller numbers indicating a lower concentration required to inhibit 50 percent binding and therefore greater potency. Further specifics of this assay are provided hereinafter.
# Jurkat cells (ATCC TIB 152), a human T lymphoblastic line, labeled with ^51 chromium were used to assay in vitro binding inhibition provided by various compounds discussed herein.
# The plates were prepared as follows: The 25-mer CS-1 compound (SEQ ID NO:1) dissolved at 0.5-1 μg/ml in a buffer of 0.1M NaHCO3 at pH 9.5 that also contained 10 μg/ml of bovine serum albumin (BSA) or a conjugate of the CS-1 compound linked to ovalbumin (CS-1-OVA) dissolved at 1-2.5 μg/ml in the same buffer was used as the substrate. Each well of the microtiter plates was coated with 50 μl of substrate or buffer alone for controls. The wells were permitted to dry out completely and were then rinsed twice with PBS at pH 7.4. Non-specific binding sites of each well were then blocked using 200 μl per well of RPMI/1 percent BSA for two hours at room temperature.
# Jurkat cells (3-5×10^6 cells) were placed into a 15 ml Falcon™ round-bottom tube with a cap. The tube was centrifuged, and the extra medium was then removed.
# Two hundred microliters of a ^51 Cr labeling solution were added to the centrifuged cells and maintained in contact with the cells for 90-120 minutes in a warm room. […] Longer contact times provide a greater amount of labeling but lower cell viability.
# The labeled cells are washed with (i) complete medium, (ii) 1 mM EDTA/PBS and then (iii) RPM1/1 percent BSA free of serum components. The cells are centrifuged after each washing. The cells are finally resuspended in serum-free RPMI/1 percent BSA at a concentration of 1×10^6 viable cells/ml, which provides a concentration that is diluted by one-half in the assay.
# Inhibitor compounds are prepared as stock solutions at 20 mg/ml in DMSO in 1.5 ml cryogenic screwcap vials, and were stored at -70° C. Using Flow™ round-bottom or V-bottom microtiter plates, the inhibitor compounds were prepared at twice the assay concentration in RPMI/1 percent BSA at 60 μl/well.
# Four initial dilutions were typically used.
# The ^51 Cr-labeled cells ([…] at 60 μl/well) were then admixed with the diluted compound solutions. The admixtures were maintained at room temperature (about 22° C.) for 30 minutes.
# One hundred microliters of each inhibitor compound/cell admixture were transferred to the substrate-coated wells. This was done in triplicate for each dilution. The resulting plates were incubated for 30 minutes at 37° C. and then washed gently three times with RPMI/1 percent BSA at 200 μl/well. Binding was observed microscopically, particularly after the second wash.
# The bound cells were then lysed by the addition of a 0.5 percent solution of sodium dodecylsulfate in water at 100 μl/well. The resulting solutions were then processed for counting and calculation of IC50 values following usual procedures.
# The data of Table 1 are normalized to the binding of SEQ ID NO:3. […] Multiple assays for the same compound were averaged.
# [1] = system: New Zealand white rabbits; test: Rabbit heterotopic cardiac allograft model; type: in vivo; details: for Expression on Coronary Arteries: ICAM-1 / Expression on Coronary Arteries: Macrophages / Expression on Coronary Arteries: T cells / Expression on Coronary Arteries: Total Fibronectin / Expression on Coronary Arteries: VCAM-1 / Expression on Coronary Arteries: MHC Class II: 1 mg/kg s.c., allograft, 7 to 8 days; for Expression on Coronary Arteries: MHC Class II: immunohistochemistry; as to Expression on Coronary Arteries: ICAM-1: key: -: negative; ±: minimal; +: little; ++: moderately abundant; +++: very abundant; as to Expression on Coronary Arteries: Macrophages: key: -: negative; ±: minimal; +: little; ++: moderately abundant; +++: very abundant; as to Expression on Coronary Arteries: T cells: key: -: negative; ±: minimal; +: little; ++: moderately abundant; +++: very abundant; as to Expression on Coronary Arteries: Total Fibronectin: key: -: negative; ±: minimal; +: little; ++: moderately abundant; +++: very abundant
# From the text: New Zealand white rabbit SPF hearts were allografted into the necks of similar rabbits to assay a graft-vs-host immunorejection model and the affect of a contemplated compound on that immunoinflammatory response.
# New Zealand white female rabbits (Charles River Lab., Saint Laurent, Quebec), between 3.5 and 4 kg underwent heterotopic cardiac transplant following an experimental protocol previously described [Alonso et al., Am. J. Pathol., 87:415-442 (1977); Clausell et al., Circulation, 89:2768-2779 (1994)]. The animals were unselected to favor an HLA-mismatch, the host rabbits were Pasteurella-free and the donors, outbred animals. Both host and donor rabbits were fed Purina 5321-0.5 percent cholesterol diet (Research Diets Inc., New Brunswick, N.J.), a strategy that has proven useful in accelerating the process of allograft arteriopathy [Alonso et al., Am. J. Pathol., 87:415-442 (1977)]. The diet was commenced four days prior to the transplant and continued in the recipient of the transplant until the completion of the experimental period.
# The technique of heterotopic cardiac transplantation has been previously described [Clausell et al., Circulation, 89:2768-2779 (1994)]. Briefly, a vertical incision was performed in the anterior aspect of the neck of the recipient rabbit and the left common carotid artery and the ipsilateral external jugular vein were isolated. The cardiac allograft was placed in the neck by anastomosing the aorta end-to-side to the recipient's carotid artery and the pulmonary end-to-side to the recipient's external jugular vein, following a total period of ischemia for the donor hearts of approximately 30 minutes. Postoperative care was in compliance with the Principles of Laboratory Animal Care formulated by the Canadian National Society for Medical Research.
# Beginning the day of the transplant, the animals were randomized and treated with either scrambled compound (control group) at 1 mg/kg s.c. or the inhibitor compound at 1 mg/kg s.c. The doses of the compounds were empirically extrapolated to the in vivo model based on preliminary in vitro studies, of Table 1. No other immunosuppression therapy was administered. The grafts were monitored daily by palpation and maintained for 7 to 8 days, a previously described endpoint that was associated with myocardial rejection (impaired cardiac contractility) and development of the allograft arteriopathy in this model [Clausell et al., Circulation, 89:2768-2779 (1994)]. A total of fourteen animals were studied in the control (n=7) and treated (n=7) groups.
# The animals were sacrificed using a lethal dose of euthanol (480 mg i.v.) (MTC Pharmaceutical, Cambridge, ON), host and donor hearts were removed, and the coronary arteries were perfused with saline through the aorta, followed by light fixation by perfusion with 2 percent paraformaldehyde (Sigma, St, Louis, Mo.). […] Different sections of the hearts were either saved in 10 percent formalin (BDH Inc., Toronto, ON) for light microscopy studies or immediately frozen in O.T.C. Compound Tissue Tek (Miles Inc., Elkart, Ind.) for specific immunohistochemistry studies.
# Tissue specimens from the donor hearts were stained with hematoxylin:eosin for histological grading of rejection according to a modified Billingham's criteria [Billingham, Hum. Pathol., 10:367-386 (1979)]. The sections were graded by a pathologist without knowledge of whether the donor hearts came from control or inhibitor compound treated animals.
# Three different paraffin-embedded tissue sections from host and donor hearts from both control and treated rabbits were stained by the Movat pentachrome method for light microscopy. Morphometric analysis was performed using a Zeiss microscope attached to a computer-generated video analysis system (Perceptics Inc., NuVision software), as described in Clausell et al., Circulation, 89:2768-2779 (1994). […]
SMILES,"IC50 value, times less than the IC50 value for the standard 10-mer (VLA-4 receptor; as shown in Table 1)",Relative Potency (VLA-4 receptor),Expression on Coronary Arteries: ICAM-1 [1],Expression on Coronary Arteries: Macrophages [1],Expression on Coronary Arteries: T cells [1],Expression on Coronary Arteries: Total Fibronectin [1],Expression on Coronary Arteries: VCAM-1 [1],Expression on Coronary Arteries: MHC Class II [1],Baseline (rabbit own host heart) of incidence of intimal thickening [1],Baseline (rabbit own host heart) of severity of intimal thickening [1],"binding inhibition, in words (compared with standard 10-mer of SEQ ID NO:3 or other compounds) (VLA-4 receptor)"
"CC(C)C[C@H](NC(=O)Cc1ccccc1)C(=O)N[C@@H](CC(=O)O)C(=O)N[C@@H](Cc1ccccc1)C(=O)N1CCC[C@@H]1C(N)=O [896.52, N-phenylacetyl-Leu-Asp-Phe-D-Pro-NH2] (PhAc-LDF[dP]-NH2)",about 312 times,313,±,±,±,±,±,±,12%,12%,
"CC(C)C[C@H](NC(=O)[C@H](CC(=O)O)NC(=O)Cc1ccccc1)C(=O)N[C@@H](Cc1ccccc1)C(=O)N1CCC[C@@H]1C(N)=O [N-phenylacetyl-Asp-Leu-Phe-D-Pro-NH2, reference compound] (PhAc-DLF[dP]-NH2)",,0,+,+,++,++,+,++,1%,12%,no inhibition of VLA-4
